# From patent US20220000811A1, “COMPOSITION FOR PROMOTING HAIR GROWTH COMPRISING A GUANINE DERIVATIVE” (KOREA RESEARCH INSTITUTE OF BIOSCIENCE AND BIOTECHNOLOGY, priority 2019, published 2022)
# Experiments:
# [1] = test system: K15, β-catenin, Ki67, Shh, PDK, PDH; experiment: Histochemical (immunostaining) analysis of skin markers; type: in vivo, mouse
# Protocol: During the hair telogen phase, the hair on the dorsal skin of 7-week-old C57BL/6 mice (Dae Han BioLink, Chungbuk, Republic of Korea) was depilated using an animal clipper and wax (Veet, Oxy Reckitt Benckiser, Seoul, Republic of Korea). From the next day, 200 μL of placebo (control), 1% IM, 1% minoxidil, or 1% metformin was applied daily to the depilated area using a sterile cotton swab. Images of each animal were captured daily, and the degree of darkness of the color on dorsal skin was quantified in the same area (1.6 cm×3 cm) using the Image J program. The mice were sacrificed, and skin tissues on days 0, 7, 14, and 20 were obtained. Half of the tissues were used for RNA isolation, and the other half were fixed with 4% paraformaldehyde overnight for histochemical analysis. The tissues fixed in Example 1.1. were immersed in 30% sucrose, and then embedded in an OCT compound (Sakura Finetek USA Inc, Torrance, Calif., USA). Frozen fragments were obtained using a cryostat sectioning device (Leica, Wetzlar, Germany) and stained using hematoxylin (Sigma) and eosin (Sigma) (H&E), or each of the antibodies shown in Table 1 below. Immunohistochemical analysis was performed, and fluorescence images were taken with an Olympus microscope (Olympus)
# [2] = test system: K15/β-catenin, Ki67/Shh, K15/PDK, Ki67/PDH populations; experiment: FACS analysis of single skin cells; type: in vivo, mouse
# Protocol: During the hair telogen phase, the hair on the dorsal skin of 7-week-old C57BL/6 mice (Dae Han BioLink, Chungbuk, Republic of Korea) was depilated using an animal clipper and wax (Veet, Oxy Reckitt Benckiser, Seoul, Republic of Korea). From the next day, 200 μL of placebo (control), 1% IM, 1% minoxidil, or 1% metformin was applied daily to the depilated area using a sterile cotton swab. Images of each animal were captured daily, and the degree of darkness of the color on dorsal skin was quantified in the same area (1.6 cm×3 cm) using the Image J program. The mice were sacrificed, and skin tissues on days 0, 7, 14, and 20 were obtained. Half of the tissues were used for RNA isolation, and the other half were fixed with 4% paraformaldehyde overnight for histochemical analysis. After the mice were perfused with PBS to remove blood, the skin tissue was harvested and cut into small pieces. The tissue was digested with trypsin (Thermo Fisher Scientific) at 37° C. for 150 minutes, then filtered through a 75 μm nylon mesh, followed by filtering through a 30 μm mesh (BD Biosciences). Single cells were fixed, permeabilized, and blocked according to the immunostaining protocol. The cells were stained with specific antibodies (Table 1 above) and analyzed with BD Accuri™ C6 (BD Biosciences)
# [3] = test system: human embryonic stem cells (hESCs); experiment: Maintaining stemness of human embryonic stem cells in unconditioned medium, AP staining; type: cell-based; details: for improvement of effect of maintaining stemness: hESCs in UM
# Protocol: Additionally, the effect of the compounds of the present invention on maintaining sternness of human embryonic stern cells (hESCs) was confirmed (FIG. 4). Specifically, when hESCs were cultured in an unconditioned medium (UM), the sternness was lost, and AP activity was weakened (FIG. 4a). […] In particular, when IM176OUT05 was treated at 10 nM and 100 nM concentrations, it was confirmed that the effect of maintaining the sternness was improved by 7.6 times and 8.2 times, respectively (FIG. 4b).
compound,measurement,setting,value
"Cc1ccccc1CCNC(=N)NC(=N)N [IM176OUT05, N-1-(2-methyl)phenethylbiguanide]",Ki67-positive proliferating cells,[1]; day 7,identified
same,PDH expression in Ki67-positive proliferating cells,[1]; day 7,clearly confirmed
same,PDK expression in K15-positive stem cells,[1]; day 7,detected
same,expression of δ-catenin,[1]; day 7,increased
same,keratin 15 (K15) expression in follicle protrusion region compared to control or minoxidil,[1]; day 7,strongly expressed
same,K15/PDH and Ki67/PDK expressions,[1]; day 20,independently detected
same,Sonic hedgehog (Shh) detection,[1]; day 20,clearly detected
same,K15+/PDK+ population in single skin cells,"[2]; day 7, FACS",5.9%
same,K15+/β-catenin+ population in single skin cells,"[2]; day 7, FACS",11.7%
same,Ki67+/PDH+ population,"[2]; day 7, FACS",13.7%
same,increase of K15+/β-catenin+ population compared to control,"[2]; day 7, FACS",3.7
same,increase of glycolytic stem cell population (K15+/PDK+) compared to control,"[2]; day 7, FACS",at least 6.6 times
same,Ki67+/Shh+ population in single skin cells,"[2]; day 20, FACS",36.7%
same,PDK+ cell population and Ki67+ cell population,"[2]; day 20, FACS",increased
same,increase of Ki67+/Shh+ population compared to control,"[2]; day 20, FACS",2.7 times
same,separated populations of PDH+ cells and K15+ cells,"[2]; day 20, FACS",increased
same,improvement of effect of maintaining stemness,[3]; 10 nM,7.6 times
same,improvement of effect of maintaining stemness,[3]; 100 nM,8.2 times
same,AP staining (stemness),"[3]; hESCs in unconditioned medium, low dose",increase in AP staining
